Results from the OligoGym collection.
After the bases stand the sugars from the 5' end (letter, count) and the backbone: PS all phosphorothioate, else s phosphorothioate and o phosphodiester by linkage. Methylation of C is not given here. l = locked nucleic acid (LNA); d = 2'-deoxy (DNA)

Target: ANGPTL2
Conditions: ASO

Sequence | target mRNA inhibition (5 µM) [%] | target mRNA inhibition (25 µM) [%]
TGTTTGGAAATGTTATCT (sugars l3 d11 l4, PS) | 80.9 | 87.1
GCTCCGGTAATGGCCC (sugars l1 d12 l3, PS) | 25.9 | 29.2
TTGATGATGCGGTTGTAG (sugars l3 d13 l2, PS) | 70.7 | 77.8
CTGGTTGATGATGCGGTT (sugars l1 d15 l2, PS) | 56 | 66
AGTTGATAGTTTATCTCCT (sugars l2 d15 l2, PS) | 59.7 | 67.4
AGTAGCCTTCTGACCAA (sugars l1 d13 l3, PS) | 48.5 | 56.5
CTAGTGTGCTCTGGAGC (sugars l1 d14 l2, PS) | 36.6 | 65.7
ACCCTCCATCCTTCACC (sugars l3 d12 l2, PS) | 38.9 | 44
GCCAACACTAACTCGGC (sugars l1 d14 l2, PS) | 30.6 | 31.4
ATTGTGGGTTGGAGGGC (sugars l1 d14 l2, PS) | 30.3 | 18.7
CAGGCCAACACTAACTC (sugars l1 d12 l4, PS) | 66.9 | 82.5
TAATTCACCGCCAAATTAC (sugars l3 d13 l3, PS) | 27.6 | 36.8
GTTGATAGTTTATCTCCT (sugars l1 d14 l3, PS) | 64.1 | 76.7
CCACCCATTTAGCCTTC (sugars l1 d14 l2, PS) | 46.7 | 42.7
CAGCCAGTAAATGTTCTCCA (sugars l1 d17 l2, PS) | 42.8 | 38
CCCACAATGAGACTGGT (sugars l2 d13 l2, PS) | 30.2 | 30.4

Sequence | target mRNA inhibition (5 µM) [%] | target mRNA inhibition (25 µM) [%]
ATCAATAGGCAGACAGGC (sugars l2 d14 l2, PS) | 50.1 | 65.4
CATTTTGAGATTCCCCCA (sugars l1 d15 l2, PS) | 22.1 | 21.1
TCCGGTAATGGCCCC (sugars l1 d12 l2, PS) | 34 | 51.8
AAGTTGATAGTTTATCTC (sugars l4 d11 l3, PS) | 91.6 | 91.4
CAGGTCCTTGTACTTGC (sugars l2 d13 l2, PS) | 49.2 | 62
CAAAGGCATTTCAGTTCC (sugars l1 d14 l3, PS) | 56.8 | 70.4
GTCATAGAAACTACCCC (sugars l1 d13 l3, PS) | 29.1 | 68.1
TTTCTAAACTCTCACCCTG (sugars l1 d15 l3, PS) | 26.4 | 25.1
GTGGGCAAGAGGGATGC (sugars l1 d14 l2, PS) | 35 | 32.2
TAATGGCTGAGATGCAG (sugars l4 d11 l2, PS) | 36 | 52.6
GTTGATAGTTTATCTCC (sugars l3 d12 l2, PS) | 87.4 | 88.8
TAATAGGCACACACCCAGAC (sugars l1 d17 l2, PS) | 27.2 | 43.3
CTGGGTTATATTCTCTT (sugars l2 d12 l3, PS) | 39.4 | 43.5
CTCCAAATTAAATCCG (sugars l4 d9 l3, PS) | 22.4 | 32.3
TTGATGATGCGGTTGTA (sugars l3 d12 l2, PS) | 76.5 | 83.1
TTATGCACTCGGTTCTCC (sugars l1 d15 l2, PS) | 30.6 | 46.6
